Measured values reported in the NIST ThermoML archive (doi:10.1016/j.tca.2011.12.010).
Values joined by “and” are separate entries in the source; they are usually repeats but may differ in a detail not shown here. Equal entries are not always repeated. Numbers after ± are expanded uncertainties.

Assay: molar heat capacity at constant pressure
Conditions: 101.33 kPa, Small sample (50 mg) DSC

O=[N+]([O-])[O-].O=[N+]([O-])[O-].O=[N+]([O-])[O-].O=[N+]([O-])[O-].[K+].[K+].[Mg+2] [bis-potassium magnesium nitrate]
Conditions	molar heat capacity at constant pressure
461 K, Crystal 1	606.9 ± 12 J/K/mol
462 K, Crystal 1	680.8 ± 14 J/K/mol
463 K, Crystal 1	806.8 ± 16 J/K/mol
464 K, Crystal 1	1030.1 ± 22 J/K/mol
465 K, Crystal 1	1503.6 ± 34 J/K/mol
466 K, Crystal 1	2552.2 ± 57 J/K/mol
467 K, Crystal 1	4003 ± 80 J/K/mol
469 K, Liquid	2955.4 ± 60 J/K/mol
470 K, Liquid	2419.9 ± 50 J/K/mol
471 K, Liquid	1683.9 ± 36 J/K/mol
472 K, Liquid	1106.4 ± 24 J/K/mol
473 K, Liquid	770 ± 16 J/K/mol
474 K, Liquid	542.5 ± 11 J/K/mol
475 K, Liquid	510 ± 10 J/K/mol
476 K, Liquid	480.6 ± 9.6 J/K/mol
477 K, Liquid	469 ± 9.4 J/K/mol
478 K, Liquid	455.6 ± 9.1 J/K/mol
478.15 K, Liquid	463.8 ± 9.3 J/K/mol
479 K, Liquid	462.4 ± 9.2 J/K/mol
480 K, Liquid	462.4 ± 9.2 J/K/mol
481 K, Liquid	462.4 ± 9.2 J/K/mol
482 K, Liquid	462.6 ± 9.3 J/K/mol
483 K, Liquid	462.8 ± 9.3 J/K/mol
484 K, Liquid	463 ± 9.3 J/K/mol
485 K, Liquid	459.2 ± 9.2 J/K/mol and 463.2 ± 9.3 J/K/mol
486 K, Liquid	463.3 ± 9.3 J/K/mol
487 K, Liquid	463.4 ± 9.3 J/K/mol
488 K, Liquid	463.6 ± 9.3 J/K/mol
489 K, Liquid	463.8 ± 9.3 J/K/mol
490 K, Liquid	463.9 ± 9.3 J/K/mol
491 K, Liquid	464.1 ± 9.3 J/K/mol
492 K, Liquid	464.6 ± 9.3 J/K/mol
493 K, Liquid	464.6 ± 9.3 J/K/mol
494 K, Liquid	464.9 ± 9.3 J/K/mol
495 K, Liquid	465.2 ± 9.3 J/K/mol
496 K, Liquid	465.5 ± 9.3 J/K/mol
497 K, Liquid	465.6 ± 9.3 J/K/mol
498 K, Liquid	465.8 ± 9.3 J/K/mol
499 K, Liquid	466 ± 9.3 J/K/mol
500 K, Liquid	466.2 ± 9.3 J/K/mol
501 K, Liquid	466.4 ± 9.3 J/K/mol
502 K, Liquid	466.6 ± 9.3 J/K/mol
503 K, Liquid	466.1 ± 9.3 J/K/mol
504 K, Liquid	467 ± 9.3 J/K/mol
505 K, Liquid	467.2 ± 9.3 J/K/mol
506 K, Liquid	467.4 ± 9.3 J/K/mol
507 K, Liquid	467 ± 9.3 J/K/mol
508 K, Liquid	467.8 ± 9.4 J/K/mol
509 K, Liquid	466.6 ± 9.3 J/K/mol
510 K, Liquid	469 ± 9.4 J/K/mol and 466.2 ± 9.3 J/K/mol
511 K, Liquid	466.2 ± 9.3 J/K/mol
512 K, Liquid	464.1 ± 9.3 J/K/mol
513 K, Liquid	465.5 ± 9.3 J/K/mol
514 K, Liquid	464.5 ± 9.3 J/K/mol
515 K, Liquid	471.8 ± 9.4 J/K/mol
516 K, Liquid	470.4 ± 9.4 J/K/mol
517 K, Liquid	466.9 ± 9.3 J/K/mol
518 K, Liquid	471.1 ± 9.4 J/K/mol
519 K, Liquid	476.4 ± 9.5 J/K/mol
520 K, Liquid	475.7 ± 9.5 J/K/mol and 471.8 ± 9.4 J/K/mol
521 K, Liquid	475.7 ± 9.5 J/K/mol
522 K, Liquid	480.9 ± 9.6 J/K/mol
523 K, Liquid	478.1 ± 9.6 J/K/mol
524 K, Liquid	478.6 ± 9.6 J/K/mol
525 K, Liquid	479.1 ± 9.6 J/K/mol
526 K, Liquid	478.1 ± 9.6 J/K/mol
527 K, Liquid	478.7 ± 9.6 J/K/mol
528 K, Liquid	478.8 ± 9.6 J/K/mol
529 K, Liquid	485.8 ± 9.7 J/K/mol
530 K, Liquid	480.6 ± 9.6 J/K/mol
531 K, Liquid	474.6 ± 9.5 J/K/mol
532 K, Liquid	475.7 ± 9.5 J/K/mol
533 K, Liquid	476 ± 9.5 J/K/mol
534 K, Liquid	477.4 ± 9.5 J/K/mol
535 K, Liquid	483.4 ± 9.7 J/K/mol and 478.8 ± 9.6 J/K/mol
536 K, Liquid	480.6 ± 9.6 J/K/mol
537 K, Liquid	481.3 ± 9.6 J/K/mol
538 K, Liquid	483.4 ± 9.7 J/K/mol
539 K, Liquid	484.4 ± 9.7 J/K/mol
540 K, Liquid	486.5 ± 9.7 J/K/mol
541 K, Liquid	486.9 ± 9.7 J/K/mol
542 K, Liquid	487.6 ± 9.8 J/K/mol
